Laboratory results from publication PMC6979384, “Characterization of the plant homeodomain (PHD) reader family for their histone tail interactions” (Epigenetics & Chromatin, 2020).

Assays:
Test in all cases: Histone peptide microarray
Format in all cases: binding, human
Conditions in all cases: sheet "Array Heatmap"
PHF8 = system: PHF8
From the text: (§1) To more comprehensively define the histone interactions of the 31 PHD readers identified from the domain microarray analyses, we probed each on an alternate microarray platform containing a library of 293 synthetic histone peptides with single or combinatorial PTMs (Additional file 2: Figure S4 and Additional file 3: Table S2).
(§2) The 31 GST-tagged PHD readers identified in the PHD finger domain array were expressed and purified as previously. Histone peptide arrays and peptide pulldown assays were conducted as recently described (specifically, the optimized protocol from Petell et al. for the former).
(§3) Supplementary file 13072_2020_328_MOESM3_ESM.xlsx: Additional file 3: Table S2. […] Excel Tab Peptide List is a compiled list of the entire 293 histone peptide library with amino acid sequence ranges. […] Each number corresponds to the peptide number designated in Peptide List. Excel Tab Average Signals is a compiled set of binding data: chromatin reader at 0.5 μM vs. entire 293 peptide library. Data is presented as the average and standard deviation of 4 replicates. The average signals are colored to indicate signal intensity with green being strong and white being weak/low. […] Key: red= stronger relative binding; blue = weaker relative binding. Excel Tab Array info summary is a table summarizing the domains, sequence coverage, array signal range, and noise for each of the GST-tagged readers assayed on the peptide microarrays.

BAZ2B = system: BAZ2B
From the text: as §1, §2, §3

KDM7A = system: KDM7A
From the text: as §1, §2, §3

TAF3 = system: TAF3
From the text: as §1, §2, §3

BPTF (PB) = system: BPTF (PB)
From the text: as §1, §2, §3

PHF13 = system: PHF13
From the text: as §1, §2, §3

CHD5 (PPCC) = system: CHD5 (PPCC)
From the text: as §1, §2, §3

KDM5A (1) = system: KDM5A (1)
From the text: as §1, §2, §3

ING2 = system: ING2
From the text: as §1, §2, §3

AIRE (PP) = system: AIRE (PP)
From the text: as §1, §2, §3

MLL5 = system: MLL5
From the text: as §1, §2, §3

KDM5A (3) = system: KDM5A (3)
From the text: as §1, §2, §3

DIDO1 = system: DIDO1
From the text: as §1, §2, §3

PHRF1 (RP) = system: PHRF1 (RP)
From the text: as §1, §2, §3

KDM5B (3) = system: KDM5B (3)
From the text: as §1, §2, §3

KDM4C (TTP) = system: KDM4C (TTP)
From the text: as §1, §2, §3

MORC3 (CW) = system: MORC3 (CW)
From the text: as §1, §2, §3

CHD5 (PCC) = system: CHD5 (PCC)
From the text: as §1, §2, §3

CHD4 (PPCC) = system: CHD4 (PPCC)
From the text: as §1, §2, §3

PHF2 = system: PHF2
From the text: as §1, §2, §3

SP140L = system: SP140L
From the text: as §1, §2, §3

ING3 = system: ING3
From the text: as §1, §2, §3

KDM5B (1) = system: KDM5B (1)
From the text: as §1, §2, §3

PHF21A = system: PHF21A
From the text: as §1, §2, §3

TRIM66 (PB) = system: TRIM66 (PB)
From the text: as §1, §2, §3

ING1 = system: ING1
From the text: as §1, §2, §3

ING4 = system: ING4
From the text: as §1, §2, §3

RAG2 = system: RAG2
From the text: as §1, §2, §3

DPF2 (PPC2W2) = system: DPF2 (PPC2W2)
From the text: as §1, §2, §3

ING5 = system: ING5
From the text: as §1, §2, §3

PHF23 = system: PHF23
From the text: as §1, §2, §3

H2BK16ac: H2B 1-24 [Peptide H2BK16ac]
Array Heatmap value (peptide array signal) (PHF8; PHF8, each array performed twice, total n = 4): 0.3517 | Array Heatmap value (peptide array signal) (BAZ2B; BAZ2B, each array performed twice, total n = 4): 0.4705 | Array Heatmap value (peptide array signal) (KDM7A; KDM7A, each array performed twice, total n = 4): 0.3335 | Array Heatmap value (peptide array signal) (TAF3; TAF3, each array performed twice, total n = 4): 0.2759 | Array Heatmap value (peptide array signal) (BPTF (PB); BPTF (PB), each array performed twice, total n = 4): 0.3487 | Array Heatmap value (peptide array signal) (PHF13; PHF13, each array performed twice, total n = 4): 0.6297 | Array Heatmap value (peptide array signal) (CHD5 (PPCC); CHD5 (PPCC), each array performed twice, total n = 4): 0.5498 | Array Heatmap value (peptide array signal) (KDM5A (1); KDM5A (1), each array performed twice, total n = 4): 0.4583 | Array Heatmap value (peptide array signal) (ING2; ING2, each array performed twice, total n = 4): 0.6054 | Array Heatmap value (peptide array signal) (AIRE (PP); AIRE (PP), each array performed twice, total n = 4): 0.4203 | Array Heatmap value (peptide array signal) (MLL5; MLL5, each array performed twice, total n = 4): 0.5839 | Array Heatmap value (peptide array signal) (KDM5A (3); KDM5A (3), each array performed twice, total n = 4): 0.4534 | Array Heatmap value (peptide array signal) (DIDO1; DIDO1, each array performed twice, total n = 4): 0.7223 | Array Heatmap value (peptide array signal) (PHRF1 (RP); PHRF1 (RP), each array performed twice, total n = 4): 0.501 | Array Heatmap value (peptide array signal) (KDM5B (3); KDM5B (3), each array performed twice, total n = 4): 0.4678 | Array Heatmap value (peptide array signal) (KDM4C (TTP); KDM4C (TTP), each array performed twice, total n = 4): 0.4673 | Array Heatmap value (peptide array signal) (MORC3 (CW); MORC3 (CW), each array performed twice, total n = 4): 0.3691 | Array Heatmap value (peptide array signal) (CHD5 (PCC); CHD5 (PCC), each array performed twice, total n = 4): 0.7842 | Array Heatmap value (peptide array signal) (CHD4 (PPCC); CHD4 (PPCC), each array performed twice, total n = 4): 0.5943 | Array Heatmap value (peptide array signal) (PHF2; PHF2, each array performed twice, total n = 4): 0.5633 | Array Heatmap value (peptide array signal) (SP140L; SP140L, each array performed twice, total n = 4): 0.3579 | Array Heatmap value (peptide array signal) (ING3; ING3, each array performed twice, total n = 4): 0.4774 | Array Heatmap value (peptide array signal) (KDM5B (1); KDM5B (1), each array performed twice, total n = 4): 0.6719 | Array Heatmap value (peptide array signal) (PHF21A; PHF21A, each array performed twice, total n = 4): 0.4621 | Array Heatmap value (peptide array signal) (TRIM66 (PB); TRIM66 (PB), each array performed twice, total n = 4): 0.6089 | Array Heatmap value (peptide array signal) (ING1; ING1, each array performed twice, total n = 4): 0.5501 | Array Heatmap value (peptide array signal) (ING4; ING4, each array performed twice, total n = 4): 0.4481 | Array Heatmap value (peptide array signal) (RAG2; RAG2, each array performed twice, total n = 4): 0.2422 | Array Heatmap value (peptide array signal) (DPF2 (PPC2W2); DPF2 (PPC2W2), each array performed twice, total n = 4): 0.6685 | Array Heatmap value (peptide array signal) (ING5; ING5, each array performed twice, total n = 4): 0.3562 | Array Heatmap value (peptide array signal) (PHF23; PHF23, each array performed twice, total n = 4): 0.5681

H3 15-34: H3 15-34
Array Heatmap signal, PHF8 (PHF8; GST-tagged PHF8, arrays performed twice, total replicate number n = 4): 0.3827 | Array Heatmap signal, BAZ2B (BAZ2B; GST-tagged BAZ2B, arrays performed twice, total replicate number n = 4): 0.514 | Array Heatmap signal, KDM7A (KDM7A; GST-tagged KDM7A, arrays performed twice, total replicate number n = 4): 0.4439 | Array Heatmap signal, TAF3 (TAF3; GST-tagged TAF3, arrays performed twice, total replicate number n = 4): 0.3059 | Array Heatmap signal, BPTF (PB) (BPTF (PB); GST-tagged BPTF (PB), arrays performed twice, total replicate number n = 4): 0.3761 | Array Heatmap signal, PHF13 (PHF13; GST-tagged PHF13, arrays performed twice, total replicate number n = 4): 0.6527 | Array Heatmap signal, CHD5 (PPCC) (CHD5 (PPCC); GST-tagged CHD5 (PPCC), arrays performed twice, total replicate number n = 4): 0.6174 | Array Heatmap signal, KDM5A (1) (KDM5A (1); GST-tagged KDM5A (1), arrays performed twice, total replicate number n = 4): 0.5387 | Array Heatmap signal, ING2 (ING2; GST-tagged ING2, arrays performed twice, total replicate number n = 4): 0.6111 | Array Heatmap signal, AIRE (PP) (AIRE (PP); GST-tagged AIRE (PP), arrays performed twice, total replicate number n = 4): 0.5155 | Array Heatmap signal, MLL5 (MLL5; GST-tagged MLL5, arrays performed twice, total replicate number n = 4): 0.5742 | Array Heatmap signal, KDM5A (3) (KDM5A (3); GST-tagged KDM5A (3), arrays performed twice, total replicate number n = 4): 0.4281 | Array Heatmap signal, DIDO1 (DIDO1; GST-tagged DIDO1, arrays performed twice, total replicate number n = 4): 0.6822 | Array Heatmap signal, PHRF1 (RP) (PHRF1 (RP); GST-tagged PHRF1 (RP), arrays performed twice, total replicate number n = 4): 0.4582 | Array Heatmap signal, KDM5B (3) (KDM5B (3); GST-tagged KDM5B (3), arrays performed twice, total replicate number n = 4): 0.4984 | Array Heatmap signal, KDM4C (TTP) (KDM4C (TTP); GST-tagged KDM4C (TTP), arrays performed twice, total replicate number n = 4): 0.5661 | Array Heatmap signal, MORC3 (CW) (MORC3 (CW); GST-tagged MORC3 (CW), arrays performed twice, total replicate number n = 4): 0.3679 | Array Heatmap signal, CHD5 (PCC) (CHD5 (PCC); GST-tagged CHD5 (PCC), arrays performed twice, total replicate number n = 4): 0.8306 | Array Heatmap signal, CHD4 (PPCC) (CHD4 (PPCC); GST-tagged CHD4 (PPCC), arrays performed twice, total replicate number n = 4): 0.5968 | Array Heatmap signal, PHF2 (PHF2; GST-tagged PHF2, arrays performed twice, total replicate number n = 4): 0.4604 | Array Heatmap signal, SP140L (SP140L; GST-tagged SP140L, arrays performed twice, total replicate number n = 4): 0.3812 | Array Heatmap signal, ING3 (ING3; GST-tagged ING3, arrays performed twice, total replicate number n = 4): 0.5057 | Array Heatmap signal, KDM5B (1) (KDM5B (1); GST-tagged KDM5B (1), arrays performed twice, total replicate number n = 4): 0.7112 | Array Heatmap signal, PHF21A (PHF21A; GST-tagged PHF21A, arrays performed twice, total replicate number n = 4): 0.5191 | Array Heatmap signal, TRIM66 (PB) (TRIM66 (PB); GST-tagged TRIM66 (PB), arrays performed twice, total replicate number n = 4): 0.5952 | Array Heatmap signal, ING1 (ING1; GST-tagged ING1, arrays performed twice, total replicate number n = 4): 0.5616 | Array Heatmap signal, ING4 (ING4; GST-tagged ING4, arrays performed twice, total replicate number n = 4): 0.5265 | Array Heatmap signal, RAG2 (RAG2; GST-tagged RAG2, arrays performed twice, total replicate number n = 4): 0.2601 | Array Heatmap signal, DPF2 (PPC2W2) (DPF2 (PPC2W2); GST-tagged DPF2 (PPC2W2), arrays performed twice, total replicate number n = 4): 0.6945 | Array Heatmap signal, ING5 (ING5; GST-tagged ING5, arrays performed twice, total replicate number n = 4): 0.4109 | Array Heatmap signal, PHF23 (PHF23; GST-tagged PHF23, arrays performed twice, total replicate number n = 4): 0.5205
